Values belong to the compound of their own block, whether it stands above or below them.
What was measured:
[1] = test system: Mannanase; test: Increase in enzyme solubility (supernatant enzyme activity), mannanase; format: physicochemical; settings: mannanase suspension, 2 hours at room temperature
Protocol: (§1) An aqueous enzyme solution produced via fermentation of microorganism and recovered by removal of cells were concentrated using ultrafiltration to form a supersaturated protein solution. The solution was cooled below 5° C. for more than 24 hours to generate protein precipitate. The protein precipitate was suspended in the cold solution by shaking before use. Water and 1,2-hexanediol or glycerol were added to the protein suspension to obtain a diluted protein suspension with the indicated concentration of 1,2-hexanediol or glycerol while keeping the dilution of the protein suspension constant (70% w/w protein suspension to 30% w/w water/1,2-hexanediol/glycerol). The diluted protein suspensions were mixed for 2 hours at room temperature on a magnetic stirred followed by centrifugation to generate a clear supernatant. The obtained supernatant was analyzed for enzyme activity. The data in Table 5 show how much the enzyme solubility (enzyme activity) has increased compared to the reference sample, which only contains water.

[2] = test system: aqueous protease solution; test: Physical stability of a protease solution with 1,2-hexanediol or glycerol (visual inspection and NTU); format: physicochemical; settings: additive 10% w/w; protease 6.8% w/w; 4 weeks at 25° C.
Protocol: (§2) Physical stability is the ability to maintain a transparent, preferably clear, composition. This may be evaluated by visual inspection, or by centrifugation. For example, the liquid composition may centrifugated at 1200 G for 10 minutes to determine if a pellet (solid phase) is formed. Alternatively, transparency may be measured as turbidity or haziness, by using a nephelometer to measure NTU to determine light scattering.
(§3) An aqueous protease solution and an aqueous pectate lyase solution were formulated with 10% w/w water, 10% w/w 1,2-hexanediol, or 10% w/w glycerol to a final enzyme protein concentration of 6.8% w/w and 8.1% w/w, respectively. The physical stability was evaluated after storage for 4 weeks at 25° C., by visual inspection and by NTU measurements, as shown in Table 4.

[3] = test system: Pectate lyase; test: Increase in enzyme solubility (supernatant enzyme activity), pectate lyase; format: physicochemical; settings: pectate lyase suspension, 2 hours at room temperature
Protocol: as §1

[4] = test system: aqueous pectate lyase solution; test: Physical stability of a pectate lyase solution with 1,2-hexanediol or glycerol (visual inspection and NTU); format: physicochemical; settings: additive 10% w/w; pectate lyase 8.1% w/w; 4 weeks at 25° C.
Protocol: as §2, §3

[5] = test system: Protease; test: Increase in enzyme solubility (supernatant enzyme activity), protease; format: physicochemical; settings: protease suspension, 2 hours at room temperature
Protocol: as §1

[6] = test system: aqueous amylase solution; test: Physical stability of an amylase solution with 1,2-octanediol (visual inspection and NTU); format: physicochemical; settings: 0.3% w/w 1,2-octanediol, amylase 4.3% w/w, 40% w/w glycerol, pH 4.8
Protocol: as §2
An aqueous amylase solution was formulated with 40% w/w glycerol at pH 4.8 to a final enzyme protein concentration of 4.3% w/w. A sample was prepared by adding 0.3% w/w 1,2-octanediol to the amylase solution, and the physical stability was evaluated by visual inspection and NTU measurement, as shown in Table 2.

[7] = test system: Aspergillus niger, Candida parapsilosis, Candida famata; test: Microbial stability challenge of protease formulation, bottle 3; format: cell-based; settings: inoculated to 10^5 CFU/mL
Protocol: (§4) An aqueous protease (subtilisin) solution was formulated with 40% w/w glycerol at pH 6.0 to a final enzyme protein concentration of 5.5% w/w. Two samples were prepared by adding 4% w/w 1,2-hexanediol or 0.3% w/w 1,2-octanediol to the protease solution.
(§5) This was done by challenging the formulations with the microorganisms in Table 7. Each of the three bottles in Table 8 were inoculated to a total of 10^5 CFU/mL of the test microorganisms.
(§6) The bottles were analyzed for CFU/mL after 2 and 4 weeks of incubation at 20-25° C. CFU (colony forming units) per mL was measured using standard microbiological methods.

[8] = test system: Escherichia coli, Pseudomonas aeruginosa, Salmonella havana, Acinetobacter spp., Staphylococcus aureus, Staphylococcus xylosus, Enterococcus faecium; test: Microbial stability challenge of protease formulation, bottle 1; format: cell-based; settings: inoculated to 10^5 CFU/mL
Protocol: as §4, §5, §6

[9] = test system: aqueous lipase solution; test: Physical stability of a lipase solution with 1,2-hexanediol or 1,2-octanediol (visual inspection); format: physicochemical; settings: lipase 3% w/w, 15% w/w sorbitol, 6% w/w MPG
Protocol: as §2
An aqueous lipase solution was formulated with 15% w/w sorbitol and 6% w/w MPG to a final enzyme protein concentration of 3% w/w. Two samples were prepared by adding 1% w/w 1,2-hexanediol or 0.3% w/w 1,2-octanediol to the lipase solution.

[10] = test system: Lactobacillus buchneri, Lactobacillus para paracasei; test: Microbial stability challenge of protease formulation, bottle 2; format: cell-based; settings: inoculated to 10^5 CFU/mL
Protocol: as §4, §5, §6

[11] = test system: amylase (Fortiva Revo from Novozymes); test: Turbidity of commercial liquid amylase product after addition of 1,2-hexanediol (nephelometer); format: physicochemical
Protocol: (§7) The transparency (turbidity) of two commercial liquid protease (Fermax from Novozymes) and amylase (Fortiva Revo from Novozymes) products were evaluated before and after addition of different amounts of 1,2-hexanediol.

[12] = test system: protease (subtilisin); test: Enzymatic stability: residual activity of protease after 4 weeks storage; format: physicochemical
Protocol: Enzymatic stability is the ability to maintain enzymatic activity after storage. This may be determined by measuring the enzymatic activity before and after storage (for example, 4 weeks storage at 25° C.) to determine how much activity is lost. For practical purposes, the residual activity may be determined by comparing the activity of a stored sample and a frozen reference sample, which are analyzed at the same time to eliminate analytical day-to-day variation.
An aqueous protease (subtilisin) solution was produced via fermentation of microorganism, recovered by removal of cells and concentrated using ultrafiltration. Water and 1,2-hexanediol were added to the protease solution to obtain a diluted protease solution with the indicated concentration of 1,2-hexanediol while keeping the dilution of the protease solution constant (70 w/w % protease solution to 30% w/w water/1,2-hexanediol). The diluted protease solutions were incubated in closed vials at −18° C., 25° C. and 40° C. for 4 weeks. The protease activity was measured in the stored samples and residual activity calculated by using protease activity in samples stored at −18° C. as reference.

[13] = test system: protease (Fermax from Novozymes); test: Turbidity of commercial liquid protease product after addition of 1,2-hexanediol (nephelometer); format: physicochemical
Protocol: as §7

[14] = 0.3% w/w 1,2-octanediol, 2 weeks at 20-25° C.
[15] = 0.3% w/w 1,2-octanediol, 4 weeks at 20-25° C.
[16] = 4% w/w 1,2-hexanediol, 2 weeks at 20-25° C.
[17] = 4% w/w 1,2-hexanediol, 4 weeks at 20-25° C.

Structure (SMILES): OCC(O)CO [Glycerol, glycerol, reference compound]
Increase in enzyme solubility (enzyme activity) compared to the reference sample ([1]; additive 2% w/w): 10% | Increase in enzyme solubility (enzyme activity) compared to the reference sample ([1]; additive 5% w/w): 41% | Turbidity [2]: 71.2 NTU | Visual score [2]: precipitate | Increase in enzyme solubility (enzyme activity) compared to the reference sample ([3]; additive 2% w/w): 10% | Increase in enzyme solubility (enzyme activity) compared to the reference sample ([3]; additive 5% w/w): 32% | Turbidity [4]: 540 NTU | Visual score [4]: precipitate | Increase in enzyme solubility (enzyme activity) compared to the reference sample ([5]; additive 2% w/w): 0% | Increase in enzyme solubility (enzyme activity) compared to the reference sample ([5]; additive 5% w/w): 3%

Turbidity ([6]; 4 weeks at 5° C.): 19.1 NTU | Visual score ([6]; 4 weeks at 5° C.): haze | Turbidity ([6]; 4 weeks at 25° C.): 11.9 NTU | Visual score ([6]; 4 weeks at 25° C.): haze | Turbidity ([6]; 4 weeks at 40° C.): 12.7 NTU | Visual score ([6]; 4 weeks at 40° C.): haze | Physical stability by visual inspection ([9]; 0.3% w/w 1,2-octanediol, 4 weeks at 5° C.): clear | Physical stability by visual inspection ([9]; 0.3% w/w 1,2-octanediol, 4 weeks at 25° C.): clear | Physical stability by visual inspection ([9]; 0.3% w/w 1,2-octanediol, 4 weeks at 40° C.): haze
Structure (SMILES): CCCCCCC(O)CO (stereo not drawn) [1,2-octanediol]
Microbial stability, measured as CFU/mL [7, 14]: 7.0 × 10^2 CFU/mL | Microbial stability, measured as CFU/mL [7, 15]: <1.0 × 10^2 CFU/mL | Microbial stability, measured as CFU/mL [8, 14]: 3.0 × 10^2 CFU/mL | Microbial stability, measured as CFU/mL [8, 15]: <1.0 × 10^2 CFU/mL | Microbial stability, measured as CFU/mL [10, 14]: <1.0 × 10^2 CFU/mL | Microbial stability, measured as CFU/mL [10, 15]: <1.0 × 10^2 CFU/mL

Structure (SMILES): CCCCC(O)CO (stereo not drawn) [1,2-hexanediol]
Increase in enzyme solubility (enzyme activity) compared to the reference sample ([1]; additive 2% w/w): 7% | Increase in enzyme solubility (enzyme activity) compared to the reference sample ([1]; additive 5% w/w): 48% | Turbidity ([11]; 5% w/w 1,2-hexanediol added to liquid amylase product): 17.2 NTU | Turbidity ([11]; 10% w/w 1,2-hexanediol added to liquid amylase product): 14.6 NTU | Turbidity [2]: 9.4 NTU | Visual score [2]: clear | Residual activity of protease after 4 weeks storage ([12]; 2% w/w 1,2-hexanediol, 25° C.): 48% | Residual activity of protease after 4 weeks storage ([12]; 2% w/w 1,2-hexanediol, 40° C.): 8% | Residual activity of protease after 4 weeks storage ([12]; 2% w/w 1,2-hexanediol, −18° C. (reference temperature for the calculation)): 100% | Residual activity of protease after 4 weeks storage ([12]; 5% w/w 1,2-hexanediol, 25° C. (room temperature)): 77% | Residual activity of protease after 4 weeks storage ([12]; 5% w/w 1,2-hexanediol, 40° C.): 14% | Residual activity of protease after 4 weeks storage ([12]; 5% w/w 1,2-hexanediol, −18° C. (reference temperature for the calculation)): 100% | Increase in enzyme solubility (enzyme activity) compared to the reference sample ([3]; additive 2% w/w): 32% | Increase in enzyme solubility (enzyme activity) compared to the reference sample ([3]; additive 5% w/w): 66% | Turbidity ([13]; 5% w/w 1,2-hexanediol added to liquid protease product): 21.2 NTU | Turbidity ([13]; 10% w/w 1,2-hexanediol added to liquid protease product): 11.7 NTU | Turbidity [4]: 31.2 NTU | Visual score [4]: haze | Microbial stability, measured as CFU/mL [7, 16]: <1.0 × 10^2 CFU/mL | Microbial stability, measured as CFU/mL [7, 17]: <1.0 × 10^2 CFU/mL | Increase in enzyme solubility (enzyme activity) compared to the reference sample ([5]; additive 2% w/w): 11% | Increase in enzyme solubility (enzyme activity) compared to the reference sample ([5]; additive 5% w/w): 47% | Microbial stability, measured as CFU/mL [8, 16]: <1.0 × 10^2 CFU/mL | Microbial stability, measured as CFU/mL [8, 17]: <1.0 × 10^2 CFU/mL | Physical stability by visual inspection ([9]; 1% w/w 1,2-hexanediol, 4 weeks at 5° C.): clear | Physical stability by visual inspection ([9]; 1% w/w 1,2-hexanediol, 4 weeks at 25° C.): haze | Physical stability by visual inspection ([9]; 1% w/w 1,2-hexanediol, 4 weeks at 40° C.): precipitate | Microbial stability, measured as CFU/mL [10, 16]: <1.0 × 10^2 CFU/mL | Microbial stability, measured as CFU/mL [10, 17]: <1.0 × 10^2 CFU/mL
